Experimental data published in PMC7915858, “Complementary Effects of Carbamylated and Citrullinated LL37 in Autoimmunity and Inflammation in Systemic Lupus Erythematosus” (International Journal of Molecular Sciences, 2021).

Columns and labels:
SLE serum antibody = assay: ELISA for antibody reactivity of SLE sera to carb-/cit-/native LL37 and carb-REV, and its correlation with SLEDAI; format: binding, human
Method: Anti-native LL37/cit-LL37/carb-LL37 antibodies were measured as described. Briefly, 96-well flat-bottom plates (Non-Binding surface polystyrene, Corning, Glendale, AZ USA) were coated with 2 μg/mL of native LL37, cit-LL37 or carb-LL37 in carbonate buffer (0.1 M NaHCHO3, pH 9) for 2 h (or overnight) and washed four times with PBS plus 0.1% Tween-20. This washing buffer was used for washing at all steps. The blocking buffer containing 2% bovine serum albumin (BSA, Sigma) in PBS was used for at least 1 h (or overnight) to saturate unspecific binding sites. After washing, sera were diluted at various concentrations (usually at 1:100 or 1:200) in PBS + 2% BSA followed by 1 h incubation with a horseradish peroxidase–conjugated (HRP) goat anti-human IgG (Sigma-Aldrich), diluted 1:10,000 in PBS. The color was developed for 5 min with 3,3′,5,5′-tetramethylbenzidine (TMB) substrate (Sigma-Aldrich). The reaction was stopped by adding 50 μL of 2 N H2SO4 and absorbance determined at 450 nm with a reference wavelength of 540 nm. Responses were considered positive when the OD measured exceeded the mean OD values measured in healthy donors’ plasma plus two standard deviations (+2SD), calculated on the HD group values, as described.
(§1) Differences between mean values were assessed by Wilcoxon’s matched-pair signed rank test, to compare responses to antigens and control antigens in the same donor. We used Mann-Whitney test for comparison of T-cell and antibody responses between groups of patients and HD. Statistical significance was set at p < 0.05. Correlation analyses were performed by Spearman’s rank-correlation test. Data were analyzed by GraphPad Prism 7.0 or SPSS software.

SLE CD4 T-cells = assay: T-cell proliferation (BrdU incorporation, flow cytometry); format: cell-based, human
Method: (§2) PBMCs were purified from EDTA-treated blood, on Ficoll-Hypaque (Pharmacia Fine Chemicals, Uppsala, Sweden) and were incubated (10^5 cells/well) in 96-well-flat-bottom-microplates (BD) in T-cell-medium (RPMI 1640, 10% heat-inactivated human serum, HS, Gibco), 2 mM L-glutamine, 10 U/mL penicillin and 100 μg/mL streptomycin), with/without peptides. We performed assays on fresh cells, within 1-to-3 h from collection or on PBMCs frozen in 90% FCS−10% DMSO, whose viability we assessed by Trypan blue exclusion, with an inverted microscope. Recovery of live cells was between 65 and 85% of the frozen number. At day 3 and 5, BrdU was added (1 μg/mL). BrdU-incorporation was detected by APC-labeled anti-BrdU antibody (BD Pharmingen), after surface staining for CD4, CD3, CD8 and analyzed by flow cytometry (Gallios, BeckmanCoulter, Brea, CA, USA). Internal control for T-cell viability and proliferation was PHA treatment (2 μg/mL). SI for proliferation was calculated by dividing percent of BrdU-staining in the presence of each peptide antigen (LL37, carb-LL37, cit-LL37, LL37 reverse, REV; cit-LL37 reverse, cit-REV; carb-LL37 reverse, carb-REV) by the percent obtained in the untreated cells. SI for proliferation was considered positive when the values of percent of BrdU positive cells was three times higher than the values obtained with the control peptides (SI > 3). Assays were repeated twice with each patient. In rare cases in which background proliferation (culture with REV, cit-REV, carb-REV), exceeded antigen-specific proliferation (that is response to LL37, carb-LL37, cit-LL37), the assay was repeated three times. Concomitant phenotype analysis of LL37-responder T-cells included staining for CD3, CD4, CD8, CXCR5 (CXCR5 was assessed on BrdU/CD3/CD4-positive cells).
as §1

SLE CD4 T-cells (CXCR5) = assay: CXCR5 (TFH marker) expression on stimulated CD4 T-cells, flow cytometry; format: cell-based, human; conditions: representative plot
Text: Antibodies to CD4, CD8, CD3 conjugated with various fluorochromes (FITC, phycoerythrin (PE), peridinin-chlorophyll-protein (PerCp), allophycocyanin (APC), PE-Cy7) were from BD Biosciences or eBiosciences (San Diego, CA). For further LL37-specific T-cell characterization and B-cell characterization we used: APC-Cy7-CXCR5 (FAB190), APC or PE-CD38, CD19, CD20, CD27, antibodies, purchased from BD Biosciences, eBiosciences, Novus Biologicals (Littleton, CO), R&D (Minneapolis, MN). Appropriate isotype-matched controls were purchased from the same companies. PerCp-7-AAD was from BD Pharmingen, DAPI from Invitrogen (Thermo Fisher, Carlsbad, CA, USA).
as §2

[1] = tested on: native LL37-P1-specific T-cells (HLA-DRB5*0101 tetramer); assay: Peptide-MHC-tetramer staining of T-cells after PBMC stimulation; format: cell-based, human; conditions: 6 days stimulation, CD38hi CD4 T-cells
Method: Peptide-MHC-tetramers were from ImmunAware (Denmark). Staining was performed for 40 min with 1microL of tetramer suspension at 37 °C, followed by staining for CD4 (4 °C, 20 min), without washing. After incubation with anti-CD4 antibody, cells were washed, resuspended in PBS and kept at 4 °C. Before flow cytometry-acquisition, cells were labeled with PercP-conjugated 7-AAD to exclude dead cells. The peptide-MHC-tetramers used in this study are: the HLA-DR15-P1: tetramer of HLA-DRB1*1501 LLGDFFRKSKEKIGK (corresponding to the first aa at the NH2-term of the mature native LL37), (PE-conjugated) and the control peptide-MHC-tetramer called DR15-ctr: tetramer of HLA-DRB1*1501 […]1-169-185 (PE-conjugated). The other couple of peptide-MHC-tetramers used were HLA-DRB5*0101 loaded with the same LL37 epitope as above and the control tetramer HLA-DRB5*0101 loaded with the control epitope PVSKMRMATPLLMQA (CLIP-derived).

pDCs = assay: IFN-α production by purified pDCs stimulated with peptide-DNA complexes; format: cell-based, human; conditions: peptide without DNA, 24 h, ELISA
Method: Buffy-coats from HD were from Centro Trasfusionale, Policlinico Umberto I, Rome, IT. After separation of mononuclear cells by Ficoll centrifugation, pDCs were purified as described, by using the Diamond Plasmacytoid Dendritic Cell Isolation Kit (Miltenyi Biotec, Bergisch Gladbach, Germany) to obtain 99% purity. Purified pDCs were seeded into 96-well round-bottom plates at 3.5/5 × 10^4 cells per well in 200 μL RPMI 1640 (GIBCO), supplemented with 10% fetal calf serum (FCS), 1% Hepes and 1% sodium pyruvate. LL37, cit-LL37 and carb-LL37 were premixed with total human genomic DNA (extracted from PBMC of HD, see below) (15 μg/mL). After 15 min incubation at room temperature the mix was added to the pDC cultures. IFN-α in supernatants was measured by ELISA (MabTech, Stockholm, Sweden), after 24 h (according to the manufacturer’s instructions).
Human DNA was extracted from PBMCs, as reported and was fragmented by sonication. Five milligrams of DNA in a volume of 300 μL were fragmented using the Sonics Vibra Cell sonicator (Newtown, CT, USA), with the following settings: 2, 4 and 10 sonication cycles (30 s on, 30 s off, in ice) to obtain DNA fragment sizes between 100 and 1000 bp. The resulting size distribution was controlled by 2% agarose gel electrophoresis.

memory B-cells = conditions: cited from earlier work
Text: LL37 is able to activate innate immune cells and B-cells after forming complexes with nucleic acids in a special molecular conformation, suitable for TLR stimulation. PDCs, as well as B-cells, are both activated by LL37-DNA or LL37-RNA complexes.

Substance	SLE patients showing an antibody response to the antigen (SLE serum antibody; ELISA, 2 μg/mL coated antigen, sera 1:100 or 1:200, OD 450 nm, positive: OD > mean HD + 2SD, carb-LL37 28 of 45, carb-REV 8 of 47 SLE patients) [%]	SLE serum antibody reactivity (OD) compared to healthy donors (SLE serum antibody; ELISA, OD, Mann-Whitney's test)	BrdU-positive CD3+CD4+ T-cells (SLE CD4 T-cells; BrdU staining, representative zebra plot, Figure S5a) [%]	CXCR5-positive cells among total CD3+CD4+ cells (SLE CD4 T-cells (CXCR5); Figure S5b left panels) [%]	CXCR5-positive cells among CD3+CD4+BrdU+ cells (SLE CD4 T-cells (CXCR5); Figure S5b middle panels) [%]	CXCR5-positive cells among CD3+CD4+BrdU- cells (SLE CD4 T-cells (CXCR5); Figure S5b right panels) [%]	Antibody reactivity in SLE patients with renal damage versus without renal damage (SLE serum antibody; ELISA, N=6 with and N=44 without renal damage, Mann-Whitney, Figure S3 panel a P 0.047)	Correlation of antibody reactivity with SLEDAI (SLE serum antibody; Spearman)	SLE patients responding by T-cell proliferation (SLE CD4 T-cells; BrdU, positive if SI > 3, carb-LL37 8 of 25, native LL37 17 of 31, cit-LL37 16 of 31 SLE patients) [%]	Control (Ctr-B5) tetramer positive T-cells ([1]; Ctr-B5 tetr, lower panels Figure S6) [%]	LL37-specific T-cells (LL37-B5 tetramer positive) ([1]; LL37-B5 tetr, upper panels Figure S6) [%]	IFN-α response of pDCs to peptide alone (pDCs)	Stimulation of memory B-cells to mature into plasma cells, LL37-DNA complexes (memory B-cells)
SETRPVLNRLFDK*IRQVIRKEFEK*GIK*EK*SK*RFFDGLL* [carb-REV, control carbamylated reverse (REV) LL37, reference compound]	17	also significant, as compared to response of HD but significantly lower than the response to carb-LL37	5.35	3.28	8.76	3.26	–	–	–	–	–	–	–
LLGDFFRKSKEKIGKEFKRIVQRIKDFLRNLVPRTES [LL37, mature human cathelicidin antimicrobial peptide, COOH-terminal part (res. 134–170), purchased from Proteogenix]	–	–	–	–	–	–	non-significant anti-cit- and anti-native-LL37 antibody increase	both responses also correlated with SLEDAI	55	0.2	4.27	no IFN-α response	able to stimulate memory B-cells to mature into plasma cells
